The subject of this series is CCRIS mutagenicity, Ames/micronucleus/aberration tests. The experiment in a line: CCRIS mutagenicity studies.
Where [1] appears, read: Test System: AMES SALMONELLA TYPHIMURIUM, Strain/Indicator: TA98, Metabolic Activation: NONE, Method: PREINCUBATION
[2] abbreviates: Test System: AMES SALMONELLA TYPHIMURIUM, Strain/Indicator: TA100, Metabolic Activation: NONE, Method: PREINCUBATION
Where [3] appears, read: Test System: AMES SALMONELLA TYPHIMURIUM, Strain/Indicator: TA98, Metabolic Activation: NONE, Method: STANDARD PLATE.
[4] abbreviates: Test System: AMES SALMONELLA TYPHIMURIUM, Strain/Indicator: TA100, Metabolic Activation: NONE, Method: STANDARD PLATE.
Where [5] appears, read: Test System: AMES SALMONELLA TYPHIMURIUM, Strain/Indicator: TA98, Metabolic Activation: RAT, LIVER, S-9, PHENOBARBITAL, Method: STANDARD PLATE.
Setting [6] is: Test System: AMES SALMONELLA TYPHIMURIUM, Strain/Indicator: TA100, Metabolic Activation: RAT, LIVER, S-9, AROCLOR 1254, Method: STANDARD PLATE.
[7] abbreviates: Test System: AMES SALMONELLA TYPHIMURIUM, Strain/Indicator: TA98, Metabolic Activation: RAT, LIVER, S-9, AROCLOR 1254, Method: STANDARD PLATE.

Experimental findings from PubChem BioAssay AID1259407 (Chemical Carcinogenesis Research Information System (CCRIS), 2018) are described below.

Calls of active or inactive are those of the source. The rule behind the calls is not given here.

Regarding `O=C(O)c1c(Cl)cccc1Cl`, the mutagenic call is, setting by setting: under setting [1], “inactive; negative”; (Test System: AMES SALMONELLA TYPHIMURIUM, Strain/Indicator: TA98, Metabolic Activation: RAT LIVER S-9, PCB, Method: PREINCUBATION) “inactive; negative”; under setting [2], “inactive; negative”; (Test System: AMES SALMONELLA TYPHIMURIUM, Strain/Indicator: TA100, Metabolic Activation: RAT LIVER S-9, PCB, Method: PREINCUBATION) “inactive; negative”; (Test System: AMES SALMONELLA TYPHIMURIUM, Strain/Indicator: TA104, Metabolic Activation: NONE, Method: PREINCUBATION) “inactive; negative”; (Test System: AMES SALMONELLA TYPHIMURIUM, Strain/Indicator: TA104, Metabolic Activation: RAT LIVER S-9, PCB, Method: PREINCUBATION) “inactive; negative”. In addition, the mutagenic call was “inactive; negative” (Test System: E.COLI, Strain/Indicator: WP2 UVRA, Metabolic Activation: NONE, Method: PREINCUBATION) and “inactive; negative” (Test System: E.COLI, Strain/Indicator: WP2 UVRA, Metabolic Activation: RAT LIVER S-9, PCB, Method: PREINCUBATION).

On to `CC(=O)[C@H]1CC[C@H]2[C@@H]3C=CC4=CC(=O)CC[C@@]4(C)[C@@H]3CC[C@]12C`, for which the mutagenic call (End Point: IN VIVO MICRONUCLEUS, Test System: HEPATOCYTES, Species: RAT, Strain/Sex: SPRAGUE-DAWLEY/FEMALE, Route: INTRAGASTRIC (GAVAGE)) is “inactive; negative”.

Take `COc1cc(NS(C)(=O)=O)ccc1Nc1c2ccccc2nc2ccc(N=[N+]=[N-])cc12`: the mutagenic call (Test System: AMES SALMONELLA TYPHIMURIUM, Strain/Indicator: TA1537, Metabolic Activation: NONE, Method: STANDARD PLATE) was “active; positive”.

As for `C[N+]1=CC=C(c2ccccc2)CC1`, the mutagenic call under setting [2] is “active; positive” and the mutagenic call (Test System: AMES SALMONELLA TYPHIMURIUM, Strain/Indicator: TA102, Metabolic Activation: NONE, Method: PREINCUBATION) is “inactive; negative”.

Consider `O=[N+]([O-])c1ccc2ccc3c([N+](=O)[O-])cccc3c2c1`, for which the mutagenic call is, setting by setting: (Test System: AMES SALMONELLA TYPHIMURIUM, Strain/Indicator: TA98(1,8-DNP6), Metabolic Activation: NONE, Method: STANDARD PLATE) “active; positive”; (Test System: AMES SALMONELLA TYPHIMURIUM, Strain/Indicator: TA98(NR), Metabolic Activation: NONE, Method: STANDARD PLATE) “active; positive”; under setting [3], “active; positive”; under setting [4], “active; positive”; (Test System: AMES SALMONELLA TYPHIMURIUM, Strain/Indicator: YG1021, Metabolic Activation: NONE, Method: STANDARD PLATE) “active; positive”; (Test System: AMES SALMONELLA TYPHIMURIUM, Strain/Indicator: YG1024, Metabolic Activation: NONE, Method: STANDARD PLATE) “active; positive”. Moreover, the mutagenic call was “active; positive” (Test System: AMES SALMONELLA TYPHIMURIUM, Strain/Indicator: YG1026, Metabolic Activation: NONE, Method: STANDARD PLATE) and “active; positive” (Test System: AMES SALMONELLA TYPHIMURIUM, Strain/Indicator: YG1029, Metabolic Activation: NONE, Method: STANDARD PLATE).

On to `COc1c(OC)c2occc2c2oc(=O)ccc12`, for which the mutagenic call is, setting by setting: under setting [3], “inactive; negative”; under setting [5], “inactive; negative”.

For `COC(=O)[C@@H]1O[C@@H]1c1ccccc1`, the mutagenic call is “inactive; negative” under setting [3]; “active; positive” under setting [4]; “inactive; negative” under setting [6]; “inactive; negative” (Test System: AMES SALMONELLA TYPHIMURIUM, Strain/Indicator: TA1535, Metabolic Activation: RAT, LIVER, S-9, AROCLOR 1254, Method: STANDARD PLATE); “inactive; negative” (Test System: AMES SALMONELLA TYPHIMURIUM, Strain/Indicator: TA1537, Metabolic Activation: RAT, LIVER, S-9, AROCLOR 1254, Method: STANDARD PLATE); “inactive; negative” (Test System: AMES SALMONELLA TYPHIMURIUM, Strain/Indicator: TA1538, Metabolic Activation: RAT, LIVER, S-9, AROCLOR 1254, Method: STANDARD PLATE).

Regarding `ClNc1ccc2c(c1)Cc1ccccc1-2`, the mutagenic call under setting [7] is “active; positive”.

On to `COc1cc2c(c3oc4cccc(OC(C)=O)c4c(=O)c13)C1C=COC1O2` (stereo not drawn), for which the mutagenic call was “inactive; negative” under setting [5] and “active; positive” (Test System: AMES SALMONELLA TYPHIMURIUM, Strain/Indicator: TA100, Metabolic Activation: RAT, LIVER, S-9, PHENOBARBITAL, Method: STANDARD PLATE).

As to `CCCc1cc(=O)oc2c3c(c4c(c12)OC(C)(C)C=C4)O[C@H](C)[C@@H](C)[C@H]3O`, the mutagenic call is “inactive; negative” (Test System: Mouse lymphoma, Strain/Indicator: L5178Y (tk+/tk-), Metabolic Activation: None, Method: Suspension/plate) and “inactive; negative” (Test System: Mouse lymphoma, Strain/Indicator: L5178Y (tk+/tk-), Metabolic Activation: Rat, Liver, S-9, Aroclor 1254, Method: Suspension/plate).

For `c1ccc2c(c1)ccc1c2ccc2cccnc21`, the mutagenic call by setting is: under setting [3], “inactive; negative”; under setting [7], “active; positive”; under setting [6], “active; positive”.

As to `O=C(Nc1ccc(Cl)cc1)Nc1ccc(Cl)c(Cl)c1`, the mutagenic call reads like this: (Test System: AMES SALMONELLA TYPHIMURIUM, Strain/Indicator: TA98, Metabolic Activation: HAMSTER, LIVER, S-9, AROCLOR 1254 (10%), Method: PREINCUBATION) “inactive; negative”; under setting [1], “inactive; negative”; (Test System: AMES SALMONELLA TYPHIMURIUM, Strain/Indicator: TA98, Metabolic Activation: RAT, LIVER, S-9, AROCLOR 1254 (10%), Method: PREINCUBATION) “inactive; negative”; (Test System: AMES SALMONELLA TYPHIMURIUM, Strain/Indicator: TA100, Metabolic Activation: HAMSTER, LIVER, S-9, AROCLOR 1254 (10%), Method: PREINCUBATION) “inactive; negative”; under setting [2], “inactive; negative”; (Test System: AMES SALMONELLA TYPHIMURIUM, Strain/Indicator: TA100, Metabolic Activation: RAT, LIVER, S-9, AROCLOR 1254 (10%), Method: PREINCUBATION) “inactive; negative”. In addition, the mutagenic call (Test System: AMES SALMONELLA TYPHIMURIUM, Strain/Indicator: TA1535, Metabolic Activation: HAMSTER, LIVER, S-9, AROCLOR 1254 (10%), Method: PREINCUBATION) is “inactive; negative”; the mutagenic call (Test System: AMES SALMONELLA TYPHIMURIUM, Strain/Indicator: TA1535, Metabolic Activation: NONE, Method: PREINCUBATION) was “inactive; negative”; the mutagenic call (Test System: AMES SALMONELLA TYPHIMURIUM, Strain/Indicator: TA1535, Metabolic Activation: RAT, LIVER, S-9, AROCLOR 1254 (10%), Method: PREINCUBATION) is “inactive; negative”; the mutagenic call (Test System: AMES SALMONELLA TYPHIMURIUM, Strain/Indicator: TA1537, Metabolic Activation: HAMSTER, LIVER, S-9, AROCLOR 1254 (10%), Method: PREINCUBATION) is “inactive; negative”; the mutagenic call (Test System: AMES SALMONELLA TYPHIMURIUM, Strain/Indicator: TA1537, Metabolic Activation: NONE, Method: PREINCUBATION) is “inactive; negative”; the mutagenic call (Test System: AMES SALMONELLA TYPHIMURIUM, Strain/Indicator: TA1537, Metabolic Activation: RAT, LIVER, S-9, AROCLOR 1254 (10%), Method: PREINCUBATION) was “inactive; negative”.
